{"source": "patent US8247211B2", "about": "“Glycopeptide antibiotics” (American Cyanamid Company, priority 2001, dated 2012)", "test_in_all_cases": "In vitro antibacterial evaluation: minimum inhibitory concentration (MIC), broth dilution method", "type_in_all_cases": "cell-based", "key": {"Escherichia coli": {"tested_on": "Escherichia coli", "details": "18 hours at 35° C.", "how_it_was_run": "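Following NCCLS approved standard M7-A2, compounds are serially diluted from 64 to 0.06 μg/mL in Muller-Hinton II […] and inoculated at 5×10^5 CFU/mL; the MIC is the minimum concentration at which growth is inhibited.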"}, "Streptococcus sp.": {"tested_on": "Streptococcus sp.", "details": "18 hours at 35° C.", "how_it_was_run": "(§1)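 Broth dilution per NCCLS M7-A2 in Muller-Hinton II […], inoculum 5×10^5 CFU/mL, antibiotic tested over 64-0.06 μg/mL. MIC is taken as the lowest concentration that inhibits growth. Panel includes recent clinical isolates resistant to methicillin, penicillin and/or vancomycin.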"}, "Enterococcus sp.": {"tested_on": "Enterococcus sp.", "details": "18 hours at 35° C.", "how_it_was_run": "as §1"}, "Staphylococcus sp.": {"tested_on": "Staphylococcus sp.", "how_it_was_run": "as §1"}, "[1]": {"details": "broth dilution, inoculum 5×10^5 CFU/mL"}}, "data": [{"compound": "CC(C1CCCCC1)C1NC(=O)CNC(=O)C(CO)NC(=O)C(C(O)C2CNC(=N)N2C2OC(CO)C(O)C(O)C2O)NC(=O)C(C(O)C2CNC(=N)N2)NC(=O)C(Cc2ccc(OC3OC(CO)C(OC4OC5COC(c6ccccc6)OC5C(O)C4O)C(O)C3O)cc2)NC1=O", "note": "(stereo not drawn) [Example 201, Cyclo[3-cyclohexyl-2-aminobutanoyl-O-[4-O-[4,6-O-benzylidenehexonyranosyl]hexopyranosyl]tyrosyl-3-(2-iminoimidazolidin-4-yl)seryl-3-(3-hexopyranosyl-2-iminoimidazolidin-4-yl)serylserylglycyl]]", "values": [{"measurement": "MIC Escherichia coli (ATCC 25922)", "setting": "Escherichia coli; Escherichia coli (ATCC 25922)", "result": 16, "unit": "µg/mL"}, {"measurement": "MIC Escherichia coli (GC 4559)", "setting": "Escherichia coli; Escherichia coli (GC 4559)", "result": 16, "unit": "µg/mL"}, {"measurement": "MIC Escherichia coli (GC 4560)", "setting": "Escherichia coli; Escherichia coli (GC 4560)", "result": 0.25, "unit": "µg/mL"}, {"measurement": "MIC Streptococcus agalactiae (GC 4564)", "setting": "Streptococcus sp.; Streptococcus agalactiae (GC 4564)", "result": "<0.12", "unit": "µg/mL"}, {"measurement": "MIC Streptococcus pneumoniae (ATCC 6301)", "setting": "Streptococcus sp.; Streptococcus pneumoniae (ATCC 6301)", "result": "<0.12", "unit": "µg/mL"}, {"measurement": "MIC Streptococcus pneumoniae (GC 1894)", "setting": "Streptococcus sp.; Streptococcus pneumoniae (GC 1894)", "result": "<0.12", "unit": "µg/mL"}, {"measurement": "MIC Streptococcus pneumoniae (GC 4565)", "setting": "Streptococcus sp.; Streptococcus pneumoniae (GC 4565)", "result": "<0.12", "unit": "µg/mL"}, {"measurement": "MIC Streptococcus pyogenes (GC 4563)", "setting": "Streptococcus sp.; Streptococcus pyogenes (GC 4563)", "result": "<0.12", "unit": "µg/mL"}, {"measurement": "MIC Streptococcus agalactiae (GC 4564)", "setting": "Streptococcus sp.; [1]", "result": "<0.12", "unit": "µg/mL"}, {"measurement": "MIC Streptococcus pneumoniae (ATCC 6301)", "setting": "Streptococcus sp.; [1]", "result": "<0.12", "unit": "µg/mL"}, {"measurement": "MIC Streptococcus pneumoniae (GC 1894)", "setting": "Streptococcus sp.; [1]", "result": "<0.12", "unit": "µg/mL"}, {"measurement": "MIC Streptococcus pneumoniae (GC 4565)", "setting": "Streptococcus sp.; [1]", "result": "<0.12", "unit": "µg/mL"}, {"measurement": "MIC Streptococcus pyogenes (GC 4563)", "setting": "Streptococcus sp.; [1]", "result": "<0.12", "unit": "µg/mL"}, {"measurement": "MIC Enterococcus avium (GC 4558)", "setting": "Enterococcus sp.; Enterococcus avium (GC 4558)", "result": 1, "unit": "µg/mL"}, {"measurement": "MIC Enterococcus faecalis (ATCC 29212)", "setting": "Enterococcus sp.; Enterococcus faecalis (ATCC 29212)", "result": 1, "unit": "µg/mL"}, {"measurement": "MIC Enterococcus faecalis (GC 2242)", "setting": "Enterococcus sp.; Enterococcus faecalis (GC 2242)", "result": 1, "unit": "µg/mL"}, {"measurement": "MIC Enterococcus faecalis (GC 2691)", "setting": "Enterococcus sp.; Enterococcus faecalis (GC 2691)", "result": 1, "unit": "µg/mL"}, {"measurement": "MIC Enterococcus faecalis (GC 3059)", "setting": "Enterococcus sp.; Enterococcus faecalis (GC 3059)", "result": 1, "unit": "µg/mL"}, {"measurement": "MIC Enterococcus faecalis (GC 4552)", "setting": "Enterococcus sp.; Enterococcus faecalis (GC 4552)", "result": 1, "unit": "µg/mL"}, {"measurement": "MIC Enterococcus faecalis (GC 4553)", "setting": "Enterococcus sp.; Enterococcus faecalis (GC 4553)", "result": 1, "unit": "µg/mL"}, {"measurement": "MIC Enterococcus faecalis (GC 4554)", "setting": "Enterococcus sp.; Enterococcus faecalis (GC 4554)", "result": 1, "unit": "µg/mL"}, {"measurement": "MIC Enterococcus faecalis (GC 6189)", "setting": "Enterococcus sp.; Enterococcus faecalis (GC 6189)", "result": 1, "unit": "µg/mL"}, {"measurement": "MIC Enterococcus faecium (GC 2243)", "setting": "Enterococcus sp.; Enterococcus faecium (GC 2243)", "result": 1, "unit": "µg/mL"}, {"measurement": "MIC Enterococcus faecium (GC 4556)", "setting": "Enterococcus sp.; Enterococcus faecium (GC 4556)", "result": 1, "unit": "µg/mL"}, {"measurement": "MIC Enterococcus faecium (GC 4557)", "setting": "Enterococcus sp.; Enterococcus faecium (GC 4557)", "result": 0.5, "unit": "µg/mL"}, {"measurement": "MIC Enterococcus avium (GC 4558)", "setting": "Enterococcus sp.; [1]", "result": 1, "unit": "µg/mL"}, {"measurement": "MIC Enterococcus faecalis (ATCC 29212)", "setting": "Enterococcus sp.; [1]", "result": 1, "unit": "µg/mL"}, {"measurement": "MIC Enterococcus faecalis (GC 2242)", "setting": "Enterococcus sp.; [1]", "result": 1, "unit": "µg/mL"}, {"measurement": "MIC Enterococcus faecalis (GC 2691)", "setting": "Enterococcus sp.; [1]", "result": 1, "unit": "µg/mL"}, {"measurement": "MIC Enterococcus faecalis (GC 3059)", "setting": "Enterococcus sp.; [1]", "result": 1, "unit": "µg/mL"}, {"measurement": "MIC Enterococcus faecalis (GC 4552)", "setting": "Enterococcus sp.; [1]", "result": 1, "unit": "µg/mL"}, {"measurement": "MIC Enterococcus faecalis (GC 4553)", "setting": "Enterococcus sp.; [1]", "result": 1, "unit": "µg/mL"}, {"measurement": "MIC Enterococcus faecalis (GC 4554)", "setting": "Enterococcus sp.; [1]", "result": 1, "unit": "µg/mL"}, {"measurement": "MIC Enterococcus faecalis (GC 6189)", "setting": "Enterococcus sp.; [1]", "result": 1, "unit": "µg/mL"}, {"measurement": "MIC Enterococcus faecium (GC 2243)", "setting": "Enterococcus sp.; [1]", "result": 1, "unit": "µg/mL"}, {"measurement": "MIC Enterococcus faecium (GC 4556)", "setting": "Enterococcus sp.; [1]", "result": 1, "unit": "µg/mL"}, {"measurement": "MIC Enterococcus faecium (GC 4557)", "setting": "Enterococcus sp.; [1]", "result": 0.5, "unit": "µg/mL"}, {"measurement": "MIC Staphylococcus aureus (ATCC 29213)", "setting": "Staphylococcus sp.; strain ATCC 29213", "result": 0.25, "unit": "µg/mL"}, {"measurement": "MIC Staphylococcus aureus (GC 1131)", "setting": "Staphylococcus sp.; strain GC 1131", "result": 0.25, "unit": "µg/mL"}, {"measurement": "MIC Staphylococcus aureus (GC 3051)", "setting": "Staphylococcus sp.; strain GC 3051", "result": 0.5, "unit": "µg/mL"}, {"measurement": "MIC Staphylococcus aureus (GC 3053)", "setting": "Staphylococcus sp.; strain GC 3053", "result": 0.5, "unit": "µg/mL"}, {"measurement": "MIC Staphylococcus aureus (GC 4541)", "setting": "Staphylococcus sp.; strain GC 4541", "result": 0.5, "unit": "µg/mL"}, {"measurement": "MIC Staphylococcus aureus (GC 4542)", "setting": "Staphylococcus sp.; strain GC 4542", "result": 0.25, "unit": "µg/mL"}, {"measurement": "MIC Staphylococcus aureus-SMITH (GC 4543)", "setting": "Staphylococcus sp.; strain GC 4543", "result": 0.5, "unit": "µg/mL"}, {"measurement": "MIC Staphylococcus aureus (GC 4544)", "setting": "Staphylococcus sp.; strain GC 4544", "result": 0.25, "unit": "µg/mL"}, {"measurement": "MIC Staphylococcus aureus (GC 4545)", "setting": "Staphylococcus sp.; strain GC 4545", "result": 0.25, "unit": "µg/mL"}, {"measurement": "MIC Staphylococcus haemolyticus (GC 4546)", "setting": "Staphylococcus sp.; strain GC 4546", "result": 0.25, "unit": "µg/mL"}, {"measurement": "MIC Coagulase Negative Staphylococcus (GC 4547)", "setting": "Staphylococcus sp.; strain GC 4547", "result": 0.25, "unit": "µg/mL"}, {"measurement": "MIC Coagulase Negative Staphylococcus (GC 4548)", "setting": "Staphylococcus sp.; strain GC 4548", "result": 0.25, "unit": "µg/mL"}, {"measurement": "MIC Coagulase Negative Staphylococcus (GC 4549)", "setting": "Staphylococcus sp.; strain GC 4549", "result": 0.25, "unit": "µg/mL"}, {"measurement": "MIC Coagulase Negative Staphylococcus (GC 4551)", "setting": "Staphylococcus sp.; strain GC 4551", "result": 0.25, "unit": "µg/mL"}]}]}
